{"source": "patent US20180117047A1", "about": "“DRUG FOR PREVENTING AND/OR TREATING DEMENTIA” (NATIONAL UNIVERSITY CORPORATION TOTTORI UNIVERSITY, priority 2015, published 2018)", "origin": "cited, not measured here", "tested_on": "F11 cell strain, fusion cells of rat primarily cultured nerve cells and mouse neuroblastomas, expressing N141I mutant of presenilin 2", "conditions": "cited from earlier work", "note": "Read-outs that look alike come from different tables or passages of the source."}
{"smiles": "COc1cc(-c2cnn3c(O)ncnc23)ccc1[S+]([O-])c1ccccc1.[Na]", "note": "(single isomer, unassigned; (-)) [(−)-4-hydroxy-8-(3-methoxy-4-phenylsulfinylphenyl)pyrazolo[1,5-a]-1,3,5-triazine sodium salt]", "values": [{"measurement": "Nerve cell death caused by addition of ecdysone", "setting": "100 nM xanthine oxidase inhibitor simultaneously with 100 μM acetyl-L-aspartyl-L-glutamyl-L-valyl-L-aspart-1-al (caspase inhibitor)", "value": "suppressed"}]}
{"smiles": "O=c1[nH]c(=O)c2c[nH]nc2[nH]1", "note": "[oxypurinol]", "values": [{"measurement": "Nerve cell death caused by addition of ecdysone", "setting": "100 μM oxypurinol simultaneously with 100 μM acetyl-L-aspartyl-L-glutamyl-L-valyl-L-aspart-1-al (caspase inhibitor)", "value": "suppressed"}, {"measurement": "Nerve cell death caused by addition of ecdysone", "setting": "100 μM oxypurinol simultaneously with 300 μM apocynin (NADPH oxidase inhibitor)", "value": "suppressed"}]}
